Laboratory results published in patent US8497237B2 (Signature Therapeutics, Inc., priority 2011, dated 2013).

Experiments:
[1] = Spacer leaving group cyclization rate (disappearance of compound in phosphate buffer); conditions: for half-life (compound disappearance, cyclization): 2.18 mM initial, 50 mM pH 7.4 phosphate buffer, 20° C.
[2] = Oral administration of Compound KC-7 co-dosed with trypsin inhibitor Compound 109 to rats (oxycodone in plasma); format: in vivo, rat; conditions: PO co-dosing, indicated by suppressed Cmax and/or delayed Tmax
trypsin = target: T1, trypsin (Bos taurus, UniProt P00760); assay: In vitro trypsin-mediated prodrug cleavage; format: biochemical, bovine; conditions: bovine, trypsin from bovine pancreas; 0.761 mM prodrug, Tris pH 8, 37° C.; adjusted to 4815 BAEE U/mL trypsin
T1 construct: trypsin from bovine pancreas; purchased Sigma-Aldrich T8003; host or cells: bovine pancreas (tissue-derived)
T1 sequence (P00760 24-246): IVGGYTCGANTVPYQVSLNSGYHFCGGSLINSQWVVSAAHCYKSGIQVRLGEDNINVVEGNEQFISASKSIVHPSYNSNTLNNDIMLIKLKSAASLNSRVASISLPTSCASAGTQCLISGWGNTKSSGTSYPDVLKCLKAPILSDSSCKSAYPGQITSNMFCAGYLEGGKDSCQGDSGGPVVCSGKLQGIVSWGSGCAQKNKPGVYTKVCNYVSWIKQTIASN
Experimental: (§1) The reactions were conducted at 37° C. for 24 h.
(§2) Table 3 indicates the results of exposure of Compound KC-7 to trypsin. […] Table 3 also indicates the cyclization rates of the cyclizable spacer leaving group of Compound KC-23. The results are expressed as half-life of compound disappearance. Since Compound KC-23 is a diastereomer, two peaks (A and B) were analyzed; the peak area of peak B was greater than that of peak A.

[3] = target: T2, trypsin from bovine pancreas (Bos taurus, UniProt P00760); assay: In vitro trypsin-mediated prodrug cleavage; format: biochemical
T2 construct: trypsin from bovine pancreas; purchased Sigma-Aldrich T8003; host or cells: bovine pancreas (tissue-derived)
T2 sequence (P00760 24-246): T1 sequence (P00760 24-246)
Experimental: as §1, §2

[4] = Pharmacokinetics following PO administration to dogs (oxycodone in plasma)

[(S)-1-(oxycodone-6-enol-carbonyl-methyl-amino)-1-carbonyl-sarcosine]ethylamine [KC-23, peak B]
half-life (compound disappearance, cyclization) [1]: 5.80 ± 0.08 h

N=C(N)c1ccc2cc(OC(=O)c3ccc(N=C(N)N)cc3)ccc2c1 [Compound 109, 6-carbamimidoylnaphthalen-2-yl 4-(diaminomethyleneamino) benzoate]
effect of trypsin inhibitor on oxycodone release from Compound KC-7 [2]: attenuate Compound KC-7's ability to release oxycodone in rats in a dose-dependent manner

[(S)-1-(oxycodone-6-enol-carbonyl-methyl-amino)-1-carbonyl-sarcosine]ethylamine [KC-23, peak A]
half-life (compound disappearance, cyclization) [1]: 7.22 ± 0.03 h

COc1ccc2c3c1O[C@H]1C(OC(=O)N(C)[C@@H](CNC(=O)[C@H](CCCNC(=N)N)NC(=O)CNC(C)=O)C(=O)N(C)CC(=O)O)=CC[C@@]4(O)[C@@H](C2)N(C)CC[C@]314 [Compound KC-7, N-1-[(S)-2-(oxycodone-6-enol-carbonyl-methyl-amino)-2-carbonyl-sarcosine-ethylamine]-arginine-glycine-acetate]
cyclization of the spacer leaving group ([1]; shown by the cyclization rate of Compound KC-23): can cyclize
half-life at 0.761 mM (trypsin): 11.76 ± 0.0186 min
OC formation rate ([3]; 0.761 mM prodrug, Tris pH 8, 37° C.): 0.339 ± 0.032 μmol/h/BAEE U
cleavage by trypsin ([3]; in vitro): can be cleaved by trypsin
plasma PK profile of oxycodone release compared to OxyContin tablets and oxycodone ([4]; dogs, PO): resembles that of OxyContin® tablets more than that of oxycodone
release of oxycodone into dog plasma compared to Compound KC-3 ([4]; dogs, PO): significantly enhanced release of oxycodone into dog plasma (higher Cmax and AUC) as well as a more rapid Tmax

N-1-[2-(oxycodone-6-enol-carbonyl-methyl-amino)-ethylamine]-arginine-malonic acid [Compound KC-3]
AUC ± sd ([4]; oxycodone in dog plasma, AUC 0 to 24 h, PO […] (KC-7 4.88, KC-3 4.15, oxycodone 2 mg/kg), OxyContin one 20 mg tablet): 65.6 ± 22 ng·h/mL
OC Cmax ± sd ([4]; oxycodone in dog plasma, PO […] (KC-7 4.88, KC-3 4.15, oxycodone 2 mg/kg), OxyContin one 20 mg tablet): 10.2 ± 3.3 ng/mL
